Like-named read-outs stand apart in the source and are kept apart here.

Test [1] relates to A549/OPNluc cells. Put plainly: WST assay for cell growth / cell viability. In kind it is cell-based, human. The note with it: Homo sapiens, A549, A549/OPNluc cells, 48±4 hours, WST-1; read-out: IC50 (concentration for 50% inhibition of cell growth). From the text: (§1) A reporter vector pOPN1-luc obtained by the insertion of a human OPN promoter sequence (−765 to 23) into the multiple cloning site of pGL-3 basic vector (Promega) expresses luciferase when transfected into animal cells. The pOPN1-luc was transfected into a human non-small cell lung cancer-derived cell line A549 together with pPUR (Clontech) that expresses a puromycin resistance gene (puromycin-N-acetyl-transferase gene), and then cells expressing luciferase which could grow a puromycin-supplemented medium were selected. The selected cells were named “A549/OPNluc cells” and used for observation of luciferase expression inhibitory effect under control of OPN promoter, as described below.
(§2) A test compound was added to a culture containing A549/OPNluc cells to observe its influence on the amount of luciferase expressed in the cells. Here, it can be considered that when the test compound has a cell cytotoxity or cell growth inhibitory effect, the total expression level of luciferase is reduced due to a reduction in the number of living cells that depends on the concentration of the test compound, and therefore the luciferase expression inhibitory effect of the test compound under control of OPN promoter cannot be properly evaluated. For this reason, WST assay for quantification of cell proliferation ability or cell viability by colorimetric measurement was firstly performed to determine IC50 (concentration for 50% inhibition of cell growth) of the test compound for cell growth. Then, luciferase activity measurement was performed to determine EC50 (concentration for 50% inhibition of luciferase expression) of the test compound for luciferase expression under control of OPN promoter.
A549/OPNluc cells were suspended in DMEM medium containing 10% fetal calf serum (FCS) and 1% penicillin/streptomycin (P/S) at 3×10^4 cells/mL to obtain a cell suspension, and then the cell suspension was dispensed into each well of a 96-well plate in an amount of 100 μL. In order to perform the assay in triplicate, wells were prepared for a control group, and 3 wells were prepared for each test compound-treated group at each concentration. After the dispensation, the 96-well plate was incubated in a CO2 incubator (at 37° C. and 5% CO2) for 24±4 hours.
The present compound was dissolved in dimethylsulfoxide (DMSO) to obtain a 50 mmol/L solution, and the compound solution was stored at −80° C. The compound solution was diluted with DMSO in 2-fold dilution series (usually, in the range of 0.31 mmol/L to 20 mmol/L) to prepare test compound solutions whose concentration varied by two fold for WST assay.
Each solution of only DMSO (control) and the diluted test compound (sample) was dispensed into each well containing the cell suspension in an amount of 0.5 μL (200-fold dilution). The solution in each well was mixed with a vortex mixer, and then the 96-well plate was incubated in a CO2 incubator (at 37° C. and 5% CO2) for 48±4 hours. Then, Premix WST-1 Reagent (TAKARA BIO INC.) was added in an amount of 10 μL to each well. The solution in each well was mixed with a vortex mixer, and then the 96-well plate was incubated at 37° C. and 5% CO2. After 60 minutes or 120 minutes, the absorbance values (450 nm) were measured with a microplate reader (Bio-Rad; Benchmark or Thermo Scientific; Varioskan Flash).
The absorbance values of the control wells and the sample wells at each concentration were input into an Excel file to determine the percentages of absorbance values of the sample wells at each concentration with to the average absorbance value of the control wells. From the determined values, a fitted curve was determined by the method of least squares to calculate IC50.
A general note: Tetrazolium dyes change colour on reduction, which living cells bring about.

For test [2], the system named is human OPN promoter (pOPN1-luc) in A549/OPNluc cells. In words: Luciferase assay: luciferase expression under control of OPN promoter. In kind it is cell-based. The note with it: Homo sapiens.
Text: as §1, §2
The same steps as in the above-mentioned WST assay were performed in which each solution of only DMSO (control) or the diluted test compound (sample) was added in an amount of 0.5 μL to each well containing the cell suspension to achieve 200-fold dilution, and the solution in each well was mixed with a vortex mixer, and the 96-well plate was incubated in a CO2 incubator (at 37° C. and 5% CO2) for 48±4 hours.
Luciferase Assay Substrate (hereinafter referred to as “LAS”) supplied in Luciferase Assay Systems (Promega: Cat #E1500) was dissolved in Luciferase Assay Buffer (LAB) to prepare a luciferase reagent. 5×Cell Culture Lysis Reagent (hereinafter referred to as “CCLR”) was diluted by 5 times with water to prepare 1×CCLR.
After the incubation for 48±4 hours, the medium in each well was completely removed, and 1×CCLR was dispensed into each well in an amount of 50 μL. The 96-well plate was allowed to stand at room temperature for 30 minutes, and then 1×CCLR in each well was used as an assay sample. The luciferase reagent (100 μL) was placed in a tube for chemiluminescence measurement, and the assay sample (20 μL) was added to the tube and mixed with the luciferase reagent to measure chemiluminescence (Relative Luminescence Intensity: RLU) using TB 20/20 (Promega) or GloMax 20/20 (Promega).
The RLU values of the control wells and the sample wells at each concentration were input into an Excel file, and the percentages of RLU values of the sample wells at each concentration to the average RLU value of the control wells were determined. From these values, a fitted curve was determined by the method of least squares to calculate EC50. Also, the percentages of RLU values of the sample wells at each concentration to the average RLU value of the control wells were divided by the percentages of absorbance values of the compounds in WST assay at the same concentrations as those of this assay (to the control), and a fitted curve was determined from the calculated values by the method of least squares to calculate corrected EC50.

[3] abbreviates: A549, A549/OPNluc cells, 48±4 hours, read-out: EC50 (concentration for 50% inhibition of luciferase expression).
Setting [4] is: A549, EC50 corrected for decrease in viable cells (RLU % divided by WST %), read-out: corrected EC50.

In the case of `COc1ccc(Oc2cccc(C(=O)CCNC(=O)c3ccc(O)cc3)c2N)cc1` [Compound 6, N-(3-(2-Amino-3-(4-methoxyphenoxy)phenyl)-3-oxopropyl)-4-hydroxybenzamide], the IC50 in test [1] stood at 66 µM. Besides, the EC50 in test [2] (setting [3]) was 8.9 µM; in test [2] (setting [4]), 10.2 µM.

For the compound `Nc1ccc(C(=O)NCCC(=O)c2cccc(Oc3ccc(Cl)cc3)c2N)cc1` [Compound 19, N-(3-(2-Amino-3-(4-chlorophenoxy)phenyl)-3-oxopropyl)-4-aminobenzamide], the IC50 in test [1] was greater than 100 µM. Further, the EC50 in test [2] (setting [3]) was found to be 6.8 µM; in test [2] (setting [4]), 7.8 µM.

For `COc1ccc(Oc2cccc(NC(=O)CCNC(=O)c3ccc(O)cc3)c2)cc1` [Compound 26, N-(3-(3-(4-Methoxyphenoxy)phenylamino)-3-oxopropyl)-4-hydroxybenzamide], in test [1], the IC50 turned out to be 86.2 µM. Besides, the EC50 in test [2] (setting [3]) stood at 20.3 µM; in test [2] (setting [4]), 27.1 µM.

With `O=C(CCNC(=O)c1ccc(O)cc1)Nc1cccc(Oc2ccc(Cl)c(Cl)c2)c1` [Compound 38, N-(3-(3-(3,4-dichlorophenoxy)phenylamino)-3-oxopropyl)-4-hydroxybenzamide], in test [1], the IC50 turned out to be 17.3 µM. The EC50 in test [2] (setting [3]) stood at 4.6 µM; in test [2] (setting [4]) it was 7.5 µM.

(Values after US11040937B2, “Amide derivative” (TOHOKU UNIVERSITY, priority 2014, dated 2021).)
